# Laboratory results published in patent US8653049B2, “Normuramyl glycopeptide compounds” (priority 2008, dated 2014).
# “Also recorded” adds a separate entry of the source.
# Key:
# [1] = rabbits, liposomal preparations s.c. 100 nmol/kg, 3 rabbits per group; passes if below 1.1° C.
# Description: The test was conducted in an authorised laboratory, ITEST plus s.r.o., Bilé Vchýnice 10, 533 13 Vápno u Prelouce, Czech Republic, according to guide-lines CL 2005.
# Rabbits (New Zeeland albino, 4-6 kg, 3 animals per group) were used for testing.
# Liposomal preparations of muramyl glycopeptide derivatives were administered s.c. (100 nmol/kg). Empty liposomes were used as negative control and the liposomal as well as the free form of muramyl dipeptide (MDP) (25 μg/kg, corresponding to 50.7 nmol/kg) served as positive control. Temperature was measured in 1, 2, 3, 4,6 and 24 hour intervals.
# Empty liposomes were used as negative control; and liposomal as well as free muramyl dipeptide (MDP) (50.7 nmol/kg) served as positive control. B30-norAbu-MDP (MT01, structure on page 5) served as additional control. Temperature was measured in 1, 2, 3, 4, 6 and 24 h intervals. The preparation passed the test if the Sum of ΔTmax remained below 1.1° C. (3 rabbits per group)
# [2] = test system: tetanus toxoid (TaT) specific IgG antibodies; parameters: species or system BALB/c mice; conditions: mouse, in vivo, sc
# [3] = test system: NK sensitive K562 cell line; assay: NK cell cytotoxicity of human PBMC, 51Cr-release against K562; assay type: cell-based; conditions: for dose response of NK cell activity: range 0.1 μM-100 μM, FIG. 28
# Description: Ex vivo effects of test compounds on NK cells were evaluated on human peripheral blood mononuclear cells (PBMC). The NK cell cytotoxicity of healthy donors in the presence or absence of test compounds was measured in standard 4 hrs ^51Cr-release assay against NK sensitive K562 cell line in effector (PBMC) to target (K562) ratio 16:1. Test compounds were added at a concentration of 10^−7 mol/ml.
# Testing of compounds 23, 24, 32, 33, 40 and 41 for their capacity to induce cell-mediated cytotoxicity of human eripheral blood mononuclear cells (PBMCs) is shown in FIGS. 27 and 28. All donors were healthy. […] The cytotoxicity of untreated controls (30.5%) was renormalized to 100%.
# [4] = test system: myelin basic protein induced EAE; assay: Experimental allergic encephalomyelitis (EAE), Th1 adjuvant activity; assay type: in vivo, guinea pigs; conditions: for Th1 stimulation (EAE): guinea pigs sensitized with bovine MBP in IFA + compound, FIG. 31
# [5] = test system: GM-CFC progenitors in bone marrow; assay: GM-CFC recovery, test compounds after sub-lethal irradiation; assay type: in vivo, ICR/CD-1 mice; conditions: s.c. 100 nmol 24 h after 6 Gy, FIG. 36
# Description: Institite of Cancer Research (ICR/CD-1) mice (female, age of 3 months, 3-4 per group) were stimulated by s.c. administration of test compounds (volume of 200 μl, 100 nmol per dose) 24 h before sublethal γ-irradiation (6 Gy, ^60Co γray source Chisostat, Chirana Ltd., Czech Republic, at a dose of 0.285 Gy/min.). Mice were sacrified at day 13 and recovery of GM-CFC in femour was assayed by counting of colonies (CFC) formed after cultivation in medium. Non-irradiated mice were used as control for normal GM-CFC count in femour. PBS and empty liposomes were used as controls for spontaneous recovery. Liposomal MDP was used as reference standard.
# The following parameters of hemopoiesis were evaluated: • a) Blood leukocyte counts and bone marrow cellularity. Blood leukocytes (samples of blood drawn from an incision of the tail vein) and nucleated cell elements of the femoral bone marrow (femoral diaphyses flushed with saline) were estimated by means of Coulter Counter (Model ZN, Coulter Electronics). • b) Colony-forming cells in spleen. Endogenous spleen colony-forming units (E-CFUs) were measured on day 9 post the whole-body irradiation with 6.5 Gy (5 mice per group) according to Till and McCulloch. • c) GM-CFC progenitors in bone marrow. Femoral bone marrow cells were obtained from mice by flushing the femour with sterile IMDM medium. Harvested cells were calculated and diluted to 1.5×10^5 cells/ml and plated in triplicate in a semisolid environment created by plasma clot (Iscovess modification of Dulbecco's medium, 20% of fetal calf serum, 10% of colony-stimulating factor, 10% of citrate plasma, and CaCl2 1.5 mg/ml). The cultures were incubated for 7 days at 37° C. in 5% CO2. Colonies of at least 50 cells were scored at 40× magnification.
# The method is exactly as described above except that the test compounds (volume of 200 μl, 100 nmol per dose) were administered 24 h after sublethal γ-irradiation (6 Gy).
# Salmonella enteritidis = assay: Stimulation of innate immunity against Salmonella Enteritidis; conditions: for Day 6 Intest.: clear/infected/dead / Day 6 Liver: clear/infected/dead / Day 6 Lungs: clear/infected/dead / Day 6 Spleen: clear/infected/dead / Day 12 Intest.: clear/infected/dead / Day 12 Liver: clear/infected/dead / Day 12 Lungs: clear/infected/dead / Day 12 Spleen: clear/infected/dead: liposomal, 20 nmol per dose p.o. 72 and 24 h before infection (LD50), 5 mice
# [6] = test system: Friend leukemia virus (FLV); assay: Friend leukemia virus infection: survival, TER-119+ cells, spleen; conditions: for survival, late phase (days 55 and 59), long-term / survival, early phase (day 43): 10 μmol i.p., non-liposomal, FIG. 23; for survival, late phase (days 55 and 59), long-term: control 0%; for survival, early phase (day 43): saline control 82%; for clonal expansion of TER-119+ erythroleukaemia cells in spleen / spleen size (weight): day 16; for clonal expansion of TER-119+ erythroleukaemia cells in spleen: FIG. 24; for spleen size (weight): FIG. 25
# [7] = test system: r-hsp90 (Candida albicans hsp90) specific IgG antibodies; assay: Proteoliposome vaccine against C. albicans hsp90: antibody (humoral) response, ELISA; assay type: in vivo, BALB/c mice; conditions: Experiment 12.2; liposomal compound (5%) + Ni-HSP90, boost day 14; FIG. 13
# Description: (§1) Proteoliposomes were prepared by coupling recombinant hsp90 antigen (r-hsp90, 6×HISTag) via a metal chelating lipid to liposomes containing muramyl glycopeptide derivatives as adjuvant component. BALB/c […] mice 4 to 5 weeks old (female 20±2 g, 5 animal per group) were immunized by the intradermal route either with 20 μg of free or liposomal r-hsp90 (volume of 60 μl) either with or without L18-norAbu-MDP and boosted 21 days later by the same composition of experimental vaccine. FCA was used as positive control r-hsp90. Liposomal vaccine composition 20 μg of rHSP90 antigen, 5% metallochelating lipid, 5% particular MT analogue, 90% phospolipids.
# Blood samples were collected from the tail vein into heparinised capillary PCV tubes. After centrifugation, the upper part of the tube, containing […] blood serum, was cut off, thrown into […] diluting solution and thoroughly shaken. Thus, a basic dilution of 1:33 was obtained. The pre-diluted sera were kept at −20° C. Blood samples were collected before the first immunization, 2 weeks thereafter and subsequently at weekly intervals up to the 4th week after the second immunisation. Specific IgG antibodies in blood serum samples were determined by the standard indirect ELISA procedure. The data obtained were processed statistically using the non-parametric Mann-Whitney U-test.
# Proteoliposomes with muramyl glycopeptide derivatives were prepared as described above, but the boost was carried out already after 14 days. The liposomal vaccine composition was as for Experiment Set 1: 20 μg of rHSP90 antigen, 5% metallochelating lipid, 5% particular MT analogue, 90% phospolipids.
# Controls: Aluminum hydroxide (AlOH) and Freund complete adjuvans (FCA) were used as positive controls. PBS with empty liposomes was used as negative control (control). Humoral response was tested at day 14 after vaccination (post priming) and at day 20 after vaccination (post booster). Antibody titres were wer assayed by ELISA.
# [8] = test system: IFN-γ production in splenocytes stimulated by rHSP90; assay: Proteoliposome vaccine against C. albicans hsp90: cellular response (IFN-γ in splenocytes stimulated by rHSP90); assay type: in vivo, BALB/c mice; conditions: Experiment 12.3; liposomal compound (5%) + Ni-HSP90, day 20; FIG. 14
# Description: as §1
# Production of INF-γ was mesured by standard ELISPOT assay (R&D, USA). Immunised mice were sacrified 4 weeks after booster imunisation and splenocytes were isolated, and stimulated by r-hsp90 (50 μg/ml) and spots were counted.
# Proteoliposomes with muramyl glycopeptide derivatives were prepared as described above. Experimental conditions were as for Experiment 12.2.
# Cell mediated immune response against rHSP90 antigen formulated in liposomal experimental vaccine was tested at day 20 (6 days after booster). Mice were sacrificed, splenocytes were purified and production of IFN-γ in splenocytes stimulated by rHSP90 was assayed by flow cytometry.
# [9] = Survival after lethal irradiation (10 Gy); assay type: in vivo, mice (strain ICR); conditions: 200 nmol s.c. 24 h before 10 Gy; FIG. 37
# Description: Preparations (200 nmol of active substance) were applied to mice (strain ICR, female, 3 months of age, 10 mice per group) by s.c. route 24 h before irradiation (radiation dose of 10 Gy from a ^60Co gamma-ray source at a dose rate of 0.285 Gy/min). PBS and empty liposome served as negative controls, free and liposomal muramyl dipeptide (MDP) served as positive controls.
# [10] = test system: NK-sensitive YAC1 target cells; assay: NK cell-mediated cytotoxicity of spleen mononuclear cells, 51Cr-release against YAC1; conditions: FLV-inoculated mice, day 16, 18 h incubation with YAC1; FIG. 26
SMILES,+ΔTmax (Sum of ΔTmax) [1] [°C],dose response of NK cell activity [3],Th1 stimulation (EAE) [4],Day 6 Intest.: clear/infected/dead (Salmonella enteritidis),Day 6 Liver: clear/infected/dead (Salmonella enteritidis),Day 6 Lungs: clear/infected/dead (Salmonella enteritidis),Day 6 Spleen: clear/infected/dead (Salmonella enteritidis),Day 12 Intest.: clear/infected/dead (Salmonella enteritidis),Day 12 Liver: clear/infected/dead (Salmonella enteritidis),Day 12 Lungs: clear/infected/dead (Salmonella enteritidis),Day 12 Spleen: clear/infected/dead (Salmonella enteritidis),"survival, early phase (day 43) [6]",clonal expansion of TER-119+ erythroleukaemia cells in spleen [6],spleen size (weight) [6],also measured
"CCCCCCCCCCCCCCCCCC(=O)N[C@H]1[C@H](O[C@H]2[C@H](OCC(=O)N[C@@H](CC)C(=O)N[C@H](CCC(=O)O)C(N)=O)[C@@H](NC(C)=O)C(O)O[C@@H]2CO)O[C@H](CO)[C@@H](O)[C@@H]1O (stereo partly drawn) [Compound 23, N-[2-O-(2-deoxy-2-stearoylamino-β-D-glucopyranosyl-(1→4)-2-acetamido-2,3-dideoxy-α-D-glucopyranosid-3-yl)-glycoloyl]-L-α-aminobutanoyl-D-isoglutamine]",0.7,positive dose response,superior to MDP and GMDP as Th1 adjuvants,2/3/0,0/5/0,1/4/0,0/5/0,1/2/2,1/2/2,1/2/2,1/2/2,survival not worse than control at day 43,positive effect on clonal expansion,increased spleen size,"anti-TaT antibody response [2]: did not show a significant antibody response; anti-TaT antibody response (adjuvant activity) [2]: Strong adjuvant activity; Positive animals (%) (incidence of EAE) ([4]; 50 μg myelin basic protein + 1 mg test compound in FIA, footpads, up to day 21, FCA positive control): 86%; GM-CFC progenitor cells in bone marrow [5]: strongest effect; GM-CFC progenitor cells in bone marrow ([5]; listed as compound 23): strongest performers; survival, late phase (days 55 and 59), long-term [6]: clearly worse at day 55; survival, early phase (day 43) ([6]; listed as compound 23): slightly better than saline control; % of survivors on day 45 ([6]; 52 infected mice, non-liposomal compound i.p. day −10 and −3, infected non-treated 23): 45%"
"CCCCCCCCCCCCCCC(CCCCCCCCCCCCCC)C(=O)N[C@H]1[C@H](O[C@H]2[C@H](OCC(=O)N[C@@H](CC)C(=O)N[C@H](CCC(=O)O)C(N)=O)[C@@H](NC(C)=O)C(O)O[C@@H]2CO)O[C@H](CO)[C@@H](O)[C@@H]1O (stereo partly drawn) [Compound 24, N-{2-O-[2-deoxy-2-(2-tetradecyl-hexadecanoylamino)-β-D-gluco-pyranosyl-(1→4)-2-acetamido-2,3-dideoxy-α-D-glucopyranosid-3-yl]glycoloyl}-L-α-aminobutanoyl-D-isoglutamine]",0.7,negative dose response,strongest effect on Th1 stimulation,4/1/0,3/2/0,4/1/0,3/2/0,3/1/1,3/1/1,4/0/1,3/1/1,survival rate worse than control,pronounced opposite effect,spleen size slightly lower than the control,"antibody response to r-hsp90 proteoliposomes [7]: weak to non-existent antibody responses; also recorded: virtually no Th2-type response; cell-mediated response to r-hsp90 proteoliposomes [8]: strong Th1-type responses; lag time to reach full NK stimulating activity ([3]; no vs 18 h pre-incubation): most pronounced; survival of lethally irradiated mice [9]: smaller survival benefit; protective effect / survival rate in S. Enteritidis infection (Salmonella enteritidis; 0 or 1 case of death by day 12): good protective effects; survival, late phase (days 55 and 59), long-term ([6]; listed as substance 24): 30%; NK cell activity (cell-mediated cytotoxicity of SMCs) [10]: inhibitory effect"
